{"source": "paper PMC3441526", "about": "“KCN1, a Novel Synthetic Sulfonamide Anticancer Agent: In Vitro and In Vivo Anti-Pancreatic Cancer Activities and Preclinical Pharmacology” (PLoS ONE, 2012)", "key": {"HPAC cells": {"system": "HPAC cells", "test": "Anchorage-independent growth assay (soft agar)", "type": "cell-based, human", "details": "14 days", "method": "(§1) Pancreatic cancer cells were treated with various concentrations of KCN1 in 0.8 ml of 0.35% agar containing 10% FBS. The cultures were maintained in 37°C, 5% CO2 incubator for two weeks. Then, cell colonies were observed and scored under a microscope."}, "Panc-1 cells": {"system": "Panc-1 cells", "test": "Anchorage-independent growth assay (soft agar)", "type": "cell-based, human", "details": "Panc-1, soft agar, 14 days", "method": "as §1"}, "[1]": {"test": "Tolerability on repeated intraperitoneal dosing", "type": "in vivo, mice"}, "[2]": {"test": "Pharmacokinetic study in mice", "type": "in vivo, CD-1 mice", "details": "for dose recovered as parental KCN1 from urine: first 24 hr", "method": "Female CD-1 and nude mice were administered 35 mg/kg body weight of KCN1 as either a single intravenous injection via a tail vein or via an intraperitoneal injection. At selected time points after dosing, groups of three mice/time point were subjected to a retro-orbital bleed. The blood was collected into heparinized tubes, and plasma was separated by centrifugation. Tissues (brain, skeletal muscle, kidneys, liver, spleen, and heart) were collected by necropsy. Urine and feces were collected on ice for 24 h from mice housed in metabolic cages (n = 3/study). The collection containers and cages were washed twice with 0.9% saline solution, and each urine collection and each wash was analyzed separately, then values were added together for each mouse to determine the total KCN1 present in urine during the collection period. Pharmacokinetic values were derived using Phoenix WinNonlin Version 6.0 (Mountain View, CA).\nAn HPLC protocol was developed to detect KCN1 in different matrices (plasma, urine or tissue homogenates) using an Agilent 1120 instrument. KCN1 was separated on a Zorbax SB-C18 (5 µm, 150 × 4.6 mm) analytical column with a Zorbax Reliance Cartridge Guard Column (SB-C18), and the eluate was monitored by UV at 254 nm. The mobile phase was composed of “A” (methanol +0.1% Et3N)-“B” (ddH2O+0.1% Et3N) (80∶20, v/v). Prior to application, the mobile phase was filtered and degassed using a Millipore glass filter system with a nylon membrane (0.2 µm). The peaks for KCN1 were used to establish standard curves and for quantitative analysis of samples. Quantification of the compound was achieved by determination of the peak area at the retention time of approximately 4.4 minutes.\nPlasma (100 µL) was mixed with 200 µL of methanol, vortexed, and centrifuged to remove precipitated proteins. The supernatant was evaporated to dryness under a stream of air. The residue was dissolved in 100 µL of the mobile phase, and 10 µL was injected onto the HPLC system for analysis. Weighed tissues were homogenized in two to five volumes of PBS (based on the weight of the tissue samples), and portions of the homogenates were processed in the same manner as the plasma samples."}, "[3]": {"system": "Mia Paca-2 xenograft tumors", "test": "Subcutaneous xenograft tumor model", "type": "in vivo, nude mice (nu/nu)", "details": "for decrease of tumor growth: 5 days/wk for 6 weeks", "method": "(§2) The animal procedures were performed under approval by the Institutional Animal Use and Care Committee of Texas Tech University Health Sciences Center (IACUC # 10031, PHS Assurance # A 3056-01, USDA Registration # 74-R-0050, REF # 039436). Female athymic pathogen-free nude mice (nu/nu, 4–6 weeks) were purchased from Charles River Laboratories International Inc. (Wilmington, MA). To establish Panc-1 and Mia Paca-2 human pancreatic cancer xenograft tumors, cultured Panc-1 (5×10^6) and Mia Paca-2 (1×10^7) cells were harvested from monolayer cultures, washed twice with serum-free medium, re-suspended and injected subcutaneously (total volume 0.2 mL) into the left inguinal area of the mice. All animals were monitored for activity, physical condition, body weight, and tumor growth. Tumor size was determined every other day by caliper measurement of two perpendicular diameters of the implant. Tumor volume (in mm^3) was calculated by the formula, ½ (a × b ^2) where “a” is the long diameter and “b” is the short diameter, [47].\n(§3) The animals bearing human cancer xenografts were randomly divided into various treatment groups and a control group (7–10 mice/group). The untreated control group received the vehicle only. For the Panc-1 and Mia Paca-2 xenograft models, KCN1 was dissolved in a 1∶1 solution of Cremophor EL (Sigma, St. Louis, MO): ethanol (200 Proof) by heating to 80–90°C in a water bath and vortexing, then diluted with an equal volume of phosphate-buffered saline, and was administered by intraperitoneal injection at doses of 30 and 60 mg/kg/d, 5d/wk for several weeks. Treatment was initiated once tumor volume reached ∼100 mm^3. The dosage regimen was decided based upon IC50 values obtained from in-vitro studies and adjustments for body surface and weight of the treated animal."}, "Panc-1 xenograft tumors": {"system": "Panc-1 xenograft tumors", "test": "Subcutaneous xenograft tumor model", "type": "in vivo, nude mice (nu/nu)", "details": "for tumor growth inhibition: 5 days/week, Day 21", "method": "as §2, §3"}, "immortalized fibroblasts": {"system": "immortalized fibroblasts", "parameters": "method as in PMID 22923450", "details": "immortalized fibroblasts ref 31; cited from earlier work"}, "[4]": {"details": "CD-1 mice, 35 mg/kg, either route"}}, "note": "Like-named read-outs stand apart in the source and are kept apart here.", "data": [{"compound": "COc1ccc(S(=O)(=O)N(Cc2ccc3c(c2)C=CC(C)(C)O3)c2ccccc2)cc1OC", "note": "[KCN1, 3,4-dimethoxy-N-[(2,2-dimethyl-2H-chromen-6-yl)methyl]-N-phenylbenzenesulfonamide]", "values": [{"measurement": "decrease in number of colonies formed", "setting": "HPAC cells", "value": 4, "unit": "fold"}, {"measurement": "decrease in number of colonies formed", "setting": "Panc-1 cells", "value": 3, "unit": "fold"}, {"measurement": "pathological examination of brain, kidneys, GI tract or lungs at necropsy", "setting": "[1]; data not shown", "value": "no ultra-structural changes"}, {"measurement": "signs of toxicity, behavior and appearance", "setting": "[1]; i.p. up to 60 mg/kg daily for up to 12 weeks", "value": "no apparent signs of toxicity"}, {"measurement": "tolerability of regimen", "setting": "[1]; i.p. up to 60 mg/kg daily in cremophor:ethanol for up to 12 weeks", "value": "well tolerated"}, {"measurement": "time to reversal of liver swelling after discontinuation of treatment", "setting": "[1]; mouse, in vivo", "value": "2–3 weeks"}, {"measurement": "blood cell populations and blood chemistry", "setting": "[1]; preliminary analyses, data not shown", "value": "within normal limits"}, {"measurement": "liver finding at autopsy", "setting": "[1]; tissue edema with bile duct stasis, no hepatocyte death, may be caused by cremophor:ethanol formulation", "value": "Swelling was observed in the livers"}, {"measurement": "dose recovered as parental KCN1 from urine", "setting": "[2]; CD-1 mice, 35 mg/kg I.P.", "value": "less than 0.5%"}, {"measurement": "dose recovered as parental KCN1 from urine", "setting": "[2]; CD-1 mice, 35 mg/kg intravenously", "value": "less than 1%"}, {"measurement": "detection in brain", "setting": "[2]; [4]", "value": "could not be detected after 6 h"}, {"measurement": "time detectable in heart, lungs, liver, spleen, kidneys and skeletal muscle", "setting": "[2]; [4]", "value": "at least 24 h"}, {"measurement": "time plasma concentration still detectable", "setting": "[2]; CD-1 mice, I.P. 35 mg/kg", "value": "≥ 24", "unit": "h"}, {"measurement": "time plasma concentration still detectable", "setting": "[2]; CD-1 mice, I.V. 35 mg/kg", "value": "at least 6 h"}, {"measurement": "Tmax", "setting": "[2]; female, mouse, plasma, ip, CD-1 mice, I.P. 35 mg/kg, read-out: time of maximum plasma level (converted)", "value": 0.5, "unit": "h"}, {"measurement": "concentration at 6 h", "setting": "[2]; female, mouse, plasma, iv, CD-1 mice, I.V. 35 mg/kg, 6 h after dosing", "value": "< 300", "unit": "ng/mL"}, {"measurement": "concentration at 5 min", "setting": "[2]; female, mouse, plasma, iv, CD-1 mice, bolus I.V. 35 mg/kg, 5 minutes", "value": 9980, "unit": "ng/mL"}, {"measurement": "half-life", "setting": "[2]; female, mouse, Brain, CD-1, IP 35 mg/kg", "value": 3.13, "unit": "h"}, {"measurement": "Tmax", "setting": "[2]; female, mouse, Brain, CD-1, IP 35 mg/kg, read-out: Tmax", "value": 1, "unit": "h"}, {"measurement": "half-life", "setting": "[2]; female, mouse, Brain, CD-1, IV 35 mg/kg", "value": 0.53, "unit": "h"}, {"measurement": "Tmax", "setting": "[2]; female, mouse, Brain, CD-1, IV 35 mg/kg, read-out: Tmax", "value": 0.08, "unit": "h"}, {"measurement": "half-life", "setting": "[2]; female, mouse, Heart, CD-1, IP 35 mg/kg", "value": 2.19, "unit": "h"}, {"measurement": "Tmax", "setting": "[2]; female, mouse, Heart, CD-1, IP 35 mg/kg, read-out: Tmax", "value": 0.17, "unit": "h"}, {"measurement": "half-life", "setting": "[2]; female, mouse, Heart, CD-1, IV 35 mg/kg", "value": 22.1, "unit": "h"}, {"measurement": "Tmax", "setting": "[2]; female, mouse, Heart, CD-1, IV 35 mg/kg, read-out: Tmax", "value": 0.08, "unit": "h"}, {"measurement": "half-life", "setting": "[2]; female, mouse, Kidneys, CD-1, IP 35 mg/kg", "value": 2.5, "unit": "h"}, {"measurement": "Tmax", "setting": "[2]; female, mouse, Kidneys, CD-1, IP 35 mg/kg, read-out: Tmax", "value": 0.08, "unit": "h"}, {"measurement": "half-life", "setting": "[2]; female, mouse, Kidneys, CD-1, IV 35 mg/kg", "value": 18.8, "unit": "h"}, {"measurement": "Tmax", "setting": "[2]; female, mouse, Kidneys, CD-1, IV 35 mg/kg, read-out: Tmax", "value": 0.08, "unit": "h"}, {"measurement": "half-life", "setting": "[2]; female, mouse, Liver, CD-1, IP 35 mg/kg", "value": 3.5, "unit": "h"}, {"measurement": "Tmax", "setting": "[2]; female, mouse, Liver, CD-1, IP 35 mg/kg, read-out: Tmax", "value": 4, "unit": "h"}, {"measurement": "half-life", "setting": "[2]; female, mouse, Liver, CD-1, IV 35 mg/kg", "value": 1.15, "unit": "h"}, {"measurement": "Tmax", "setting": "[2]; female, mouse, Liver, CD-1, IV 35 mg/kg, read-out: Tmax", "value": 0.08, "unit": "h"}, {"measurement": "half-life", "setting": "[2]; female, mouse, Lungs, CD-1, IP 35 mg/kg", "value": 2.27, "unit": "h"}, {"measurement": "Tmax", "setting": "[2]; female, mouse, Lungs, CD-1, IP 35 mg/kg, read-out: Tmax", "value": 0.25, "unit": "h"}, {"measurement": "half-life", "setting": "[2]; female, mouse, Lungs, CD-1, IV 35 mg/kg", "value": 23.3, "unit": "h"}, {"measurement": "Tmax", "setting": "[2]; female, mouse, Lungs, CD-1, IV 35 mg/kg, read-out: Tmax", "value": 2, "unit": "h"}, {"measurement": "half-life", "setting": "[2]; female, mouse, Muscle, CD-1, IP 35 mg/kg", "value": 1.86, "unit": "h"}, {"measurement": "Tmax", "setting": "[2]; female, mouse, Muscle, CD-1, IP 35 mg/kg, read-out: Tmax", "value": 0.17, "unit": "h"}, {"measurement": "half-life", "setting": "[2]; female, mouse, Muscle, CD-1, IV 35 mg/kg", "value": 1.52, "unit": "h"}, {"measurement": "Tmax", "setting": "[2]; female, mouse, Muscle, CD-1, IV 35 mg/kg, read-out: Tmax", "value": 0.08, "unit": "h"}, {"measurement": "half-life", "setting": "[2]; female, mouse, Plasma, CD-1, IP 35 mg/kg", "value": 7.35, "unit": "h"}, {"measurement": "half-life", "setting": "[2]; female, mouse, Plasma, CD-1, IV 35 mg/kg", "value": 0.16, "unit": "h"}, {"measurement": "half-life", "setting": "[2]; female, mouse, Spleen, CD-1, IP 35 mg/kg", "value": 2.35, "unit": "h"}, {"measurement": "Tmax", "setting": "[2]; female, mouse, Spleen, CD-1, IP 35 mg/kg, read-out: Tmax", "value": 2, "unit": "h"}, {"measurement": "half-life", "setting": "[2]; female, mouse, Spleen, CD-1, IV 35 mg/kg", "value": 0.46, "unit": "h"}, {"measurement": "Tmax", "setting": "[2]; female, mouse, Spleen, CD-1, IV 35 mg/kg, read-out: Tmax", "value": 0.08, "unit": "h"}, {"measurement": "decrease of tumor growth", "setting": "[3]; 30 mg/kg i.p.", "value": "about 43%"}, {"measurement": "decrease of tumor growth", "setting": "[3]; 60 mg/kg i.p.", "value": "~57", "unit": "%"}, {"measurement": "body weight versus controls", "setting": "[3]; 30 or 60 mg/kg i.p.", "value": "no significant differences in body weights"}, {"measurement": "tumor growth inhibition", "setting": "Panc-1 xenograft tumors; 30 mg/kg i.p.", "value": "approximately 46%"}, {"measurement": "tumor growth inhibition", "setting": "Panc-1 xenograft tumors; 60 mg/kg i.p.", "value": 61, "unit": "%"}, {"measurement": "body weight versus controls", "setting": "Panc-1 xenograft tumors; 30 or 60 mg/kg i.p.", "value": "no significant differences in body weights"}, {"measurement": "cytostatic effect", "setting": "immortalized fibroblasts", "value": "little cytostatic effect"}]}]}
